Results on 14 compounds are retold here after US11571423B2, “Small molecule modulators of human sting” (Curadev Pharma Limited, priority 2017, dated 2023).

Read-outs that look alike come from different tables or passages of the source.

For assay [1], the target named is hSTING(R232) (Homo sapiens, UniProt Q86WV6, H232R). Description: Luciferase reporter assay in HEK293T-hSTING-Luciferase cells, R232 (wild type) human STING. The format is cell-based. The conditions noted are these: 20 hr stimulation, read-out: R232 human activity (EC50 range). The procedure, abridged: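 After 20 hr compound stimulation of 5×10^5 cells, secreted luciferase in the supernatant was measured by luminescence; values are fold-induction over baseline and EC50. The line is a clonal HEK293T stably carrying a STING plasmid (pUNO-1) and a luciferase reporter under five tandem ISREs fused to an ISG54 promoter.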

The subject of assay [2] is NF-κB pathway. Description: Reporter gene expression assay in THP1-Dual cells, NFkB axis (secreted SEAP). Format: cell-based, human. The following applies: 20 hr stimulation, EC50 range class, read-out: THP-NFκB activity. As for the experimental part:
(§1) THP1-Dual™ cells (Invivogen) were derived from the human THP-1 monocyte cell line by stable integration of two inducible reporter constructs. As a result, THP1-Dual™ cells allow the simultaneous study of the NF-κB pathway, by monitoring the activity of secreted SEAP, and the IRF pathway, by assessing the activity of a secreted luciferase (Lucia). 5×10^5 THP1-Dual™ cells were seeded in 384-well plates in growth medium and stimulated with novel compounds. After 20 hr of stimulation supernatants were removed and reporter proteins were readily measured in the cell culture supernatant using QUANTI-Blue™ (Invivogen), a SEAP detection reagent, and QUANTI-Luc™ (Invivogen), a luciferase detection reagent on a Spectramax i3X luminometer.
(§2) EC50 value ranges for exemplary compounds tested in the above assay are given.
Background: Reporter assays use an easily measured gene product as a stand-in for the process of interest.

Assay [3] has as its target hSTING(HAQ) (Homo sapiens, UniProt Q86WV6, G230A/H232R/R293Q/R71H). Description: Luciferase reporter assay in HEK293T-hSTING-Luciferase cells, HAQ polymorph. Format: cell-based. The following applies: HAQ polymorph of human STING, EC50 range class. The source says:
(§3) Stable Cell Line Generation • a) Stable STING expressing cells—Stable HEK293T STING-expressing cell lines were generated using plasmids purchased from Invivogen, CA, USA, that contain STING cDNA cloned into the pUNO-1 vector under hEF1-HTLV promoter and containing the Blasticidin selection cassette. The plasmids hSTING(R232), hSTING(H232), hSTING(HAQ) were directly procured from Invivogen while hSTING (AQ) and hSTING (Q) were derived from hSTING(HAQ) and hSTING (R232) plasmids respectively by using a PCR based site directed mutagenesis method. These vectors were individually transfected into HEK293T cells using Lipofectamine (Invitrogen) and transfected cells were selected under Blasticidin selection. These transfected cells were further subjected to clonal selection using the limiting dilution method to obtain clonally pure populations of HEK cells transfected with each of the above mentioned human STING variants. Only those clones were selected in which ligand independent activation of STING was minimal. • b) Stable Luciferase reporter gene expressing cells—Stable HEK293T Luciferase reporter gene expressing cell lines were generated using pCDNA4 plasmids under an IRF-inducible promoter. This promoter is comprised of five tandem interferon-stimulated response elements (ISRE) fused to an ISG54 minimal promoter. This vector was transfected into HEK293T cells using Lipofectamine (Invitrogen) and transfected cells were selected under Zeocin selection. These transfected cells were further subjected to clonal selection using the limiting dilution method to obtain clonally pure populations of HEK cells transfected the Luciferase reporter construct. Only those clones were selected in which ligand independent induction of luciferase was minimal.
(§4) 5×10^5 clonally selected HEK293T-hSTING-Luciferase cells were seeded in 384-well plates in growth medium and stimulated with novel compounds. After 20 hr of stimulation supernatant were removed and secretary reporter gene activity were measured using the Quanti-Luc detection system (Invivogen) on a Spectramax i3X luminometer.
(§5) In the tables below, EC50 value ranges for exemplary compounds are given.
(§6) Single nucleotide polymorphisms of human STING have been described, which can affect the functional potency of compounds that modulate the activity of the STING protein (see Yi et. al., PLoS One, October 2013, 8(10), e77846). The 5 major polymorphisms of human STING are shown in FIG. 1, with their prevalence in human populations indicated.
(§7) The tables below show the potency of selected compounds of the invention against the most common polymorphisms.

Assay [4] has as its system IRF pathway. Description: Reporter gene expression assay in THP1-Dual cells, IRF axis (secreted Lucia luciferase). Format: cell-based, human. The conditions noted are these: 20 hr stimulation, EC50 range class, read-out: THP-IRF activity. As to the method: as §1, §2
Assay [5] concerns the target hSTING(H232) (Homo sapiens, UniProt Q86WV6). Description: Luciferase reporter assay in HEK293T-hSTING-Luciferase cells, H232/REF polymorph. The following applies: H232/REF polymorph of human STING, EC50 range class. The format is cell-based.
Description: as §3, §4, §5, §6, §7

hSTING(HAQ), sequence (Q86WV6 whole entry R71H/G230A/H232R/R293Q): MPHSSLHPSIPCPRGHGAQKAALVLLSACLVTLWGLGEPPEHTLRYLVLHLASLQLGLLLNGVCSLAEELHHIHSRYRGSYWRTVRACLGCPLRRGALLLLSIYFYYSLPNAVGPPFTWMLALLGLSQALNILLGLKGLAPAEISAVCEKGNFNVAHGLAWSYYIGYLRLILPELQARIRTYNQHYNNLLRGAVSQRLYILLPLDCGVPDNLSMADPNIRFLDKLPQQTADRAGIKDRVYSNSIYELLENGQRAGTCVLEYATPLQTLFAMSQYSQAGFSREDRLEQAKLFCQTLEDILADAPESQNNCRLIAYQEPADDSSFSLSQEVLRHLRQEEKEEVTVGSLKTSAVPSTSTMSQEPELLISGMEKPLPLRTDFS
hSTING(H232), sequence (Q86WV6 whole entry): as the sequence (Q86WV6 whole entry R71H/G230A/H232R/R293Q) above, with H71R, A230G, R232H, Q293R counted along it
hSTING(R232), sequence (Q86WV6 whole entry H232R, the tested form may be a part): as the sequence (Q86WV6 whole entry R71H/G230A/H232R/R293Q) above, with H71R, A230G, Q293R counted along it

For the compound `CN1Cc2ccc(C(=O)NCc3c(F)cc(F)cc3F)cc2N(Cc2c(F)cccc2C#N)C1=O` [Example 39, 1-(2-cyano-6-fluorobenzyl)-3-methyl-2-oxo-N-(2,4,6-trifluorobenzyl)-1,2,3,4-tetrahydroquinazoline-7-carboxamide], the EC50 in assay [1] was 1 to 10 µM; in assay [2] (Homo sapiens), over 10 µM; in assay [3], over 10 µM; in assay [4] (Homo sapiens), over 10 µM; in assay [5], over 10 µM.

Turning to `Cc1cc(CN2C(=O)N(C)Cc3ccc(C(=O)NCc4c(F)cc(F)cc4F)cc32)on1` [Example 54, 3-methyl-1-((3-methylisoxazol-5-yl)methyl)-2-oxo-N-(2,4,6-trifluorobenzyl)-1,2,3,4-tetrahydroquinazoline-7-carboxamide], the EC50 in assay [1], in assay [2] (Homo sapiens), in assay [3], in assay [4] (Homo sapiens) and in assay [5] was 1 to 10 µM each time.

As for `CC1c2ncc(C(=O)NCc3c(F)cc(F)cc3F)cc2N(Cc2c(F)cccc2Cl)C(=O)N1C` (stereo not shown) [Example 148, 1-(2-Chloro-6-fluorobenzyl)-3,4-dimethyl-2-oxo-N-(2,4,6-trifluorobenzyl)-1,2,3,4-tetrahydropyrido[3,2-d]pyrimidine-7-carboxamide], the EC50 in assay [1] is under 1 µM; in assay [2] (Homo sapiens) it was 1 to 10 µM; in assay [3], under 1 µM; in assay [4] (Homo sapiens), 1 to 10 µM; in assay [5] it was under 1 µM.

`COc1cccc(F)c1CN1C(=O)N(C)C(C)c2ccc(C(=O)NCc3c(F)cc(F)cc3F)cc21` (stereo not shown) [Example 153, 1-(2-fluoro-6-methoxybenzyl)-3,4-dimethyl-2-oxo-N-(2,4,6-trifluorobenzyl)-1,2,3,4-tetrahydroquinazoline-7-carboxamide]: the EC50 in assay [1], in assay [2] (Homo sapiens), in assay [3], in assay [4] (Homo sapiens) and in assay [5] was under 1 µM each time.

In the case of `CC1c2ccc(C(=O)NCc3c(F)cc(F)cc3F)cc2N(Cc2cc(C(N)=O)ccc2F)C(=O)N1C` (stereo not shown) [Example 167, 1-(5-carbamoyl-2-fluorobenzyl)-3,4-dimethyl-2-oxo-N-(2,4,6-trifluorobenzyl)-1,2,3,4-tetrahydroquinazoline-7-carboxamide], the EC50 in assay [1] is under 1 µM; in assay [2] (Homo sapiens), over 10 µM; in assay [3] it was over 10 µM; in assay [4] (Homo sapiens) it was over 10 µM; in assay [5] it was over 10 µM.

With `CNc1cccc(F)c1CN1C(=O)N(C)C(C)c2ccc(C(=O)NCc3c(F)cc(F)cc3F)cc21` (stereo not shown) [Example 174, 1-(2-fluoro-6-(methylamino)benzyl)-3,4-dimethyl-2-oxo-N-(2,4,6-trifluorobenzyl)-1,2,3,4-tetrahydroquinazoline-7-carboxamide], the EC50 in assay [1] was under 1 µM; in assay [2] (Homo sapiens) it was 1 to 10 µM; in assay [3], under 1 µM; in assay [4] (Homo sapiens) it was 1 to 10 µM; in assay [5] it was under 1 µM.

Regarding `CC1c2ccc(C(=O)NCc3c(F)cc(F)cc3F)cc2N(Cc2c(F)cccc2N(C)C)C(=O)N1C` (stereo not shown) [Example 175, 1-(2-(dimethylamino)-6-fluorobenzyl)-3,4-dimethyl-2-oxo-N-(2,4,6-trifluorobenzyl)-1,2,3,4-tetrahydroquinazoline-7-carboxamide], the EC50 in assay [1] is 1 to 10 µM; in assay [2] (Homo sapiens), over 10 µM; in assay [3], 1 to 10 µM; in assay [4] (Homo sapiens), over 10 µM; in assay [5], 1 to 10 µM.

In the case of `COC(=O)c1ccc(F)c(CN2C(=O)N(C)[C@@H](C)c3ccc(C(=O)NCc4c(F)cc(F)cc4F)cc32)c1Cl` [Example 185, (S)-methyl 2-chloro-3-((3,4-dimethyl-2-oxo-7-((2,4,6-trifluorobenzyl)carbamoyl)-3,4-dihydroquinazolin-1(2H)-yl)methyl)-4-fluorobenzoate], the EC50 was under 1 µM in assay [1]; 1 to 10 µM in assay [2] (Homo sapiens); under 1 µM in assay [3]; 1 to 10 µM in assay [4] (Homo sapiens); under 1 µM in assay [5].

Regarding `CC1c2ccc(C(=O)NCc3c(F)cc(F)cc3F)cc2N(Cc2c(F)cccc2C(F)(F)F)C(=O)N1C` (stereo not shown) [Example 196, 1-(2-fluoro-6-(trifluoromethyl)benzyl)-3,4-dimethyl-2-oxo-N-(2,4,6-trifluorobenzyl)-1,2,3,4-tetrahydroquinazoline-7-carboxamide], the EC50 in assay [1], in assay [2] (Homo sapiens), in assay [3], in assay [4] (Homo sapiens) and in assay [5] was under 1 µM throughout.

As to `Cc1cccc(F)c1CN1C(=O)N(C)C(C)c2ccc(C(=O)NCc3c(F)cc(F)cc3F)cc21` (stereo not shown) [Example 203, 1-(2-fluoro-6-methylbenzyl)-3,4-dimethyl-2-oxo-N-(2,4,6-trifluorobenzyl)-1,2,3,4-tetrahydroquinazoline-7-carboxamide], the EC50 in assay [1], in assay [2], in assay [3], in assay [4] and in assay [5] was under 1 µM throughout.

Regarding `CC1c2ccc(C(=O)NCc3c(F)cc(F)cc3F)cc2N(Cc2c(F)cccc2OS(C)(=O)=O)C(=O)N1C` (stereo not shown) [Example 204, 2-((3,4-dimethyl-2-oxo-7-((2,4,6-trifluorobenzyl)carbamoyl)-3,4-dihydroquinazolin-1(2H)-yl)methyl)-3-fluorophenyl methanesulfonate], the EC50 in assay [1] was under 1 µM; in assay [2] (Homo sapiens) it was over 10 µM; in assay [3], 1 to 10 µM; in assay [4] (Homo sapiens), over 10 µM; in assay [5] it was 1 to 10 µM.

For `Cc1cc(CN2C(=O)N(C)C(C)c3ccc(C(=O)NCc4c(F)cc(F)cc4F)cc32)ccn1` (stereo not shown) [Example 208, 3,4-dimethyl-1-((2-methylpyridin-4-yl)methyl)-2-oxo-N-(2,4,6-trifluorobenzyl)-1,2,3,4-tetrahydroquinazoline-7-carboxamide], the EC50 in assay [1] is under 1 µM; in assay [2] (Homo sapiens), 1 to 10 µM; in assay [3], under 1 µM; in assay [4] (Homo sapiens), 1 to 10 µM; in assay [5], under 1 µM.

Consider `Cc1ccc(CNC(=O)c2ccc3c(c2)N(Cc2c(F)cccc2Cl)C(=O)N(C)C3C)o1` (stereo not shown) [Example 212, 1-(2-chloro-6-fluorobenzyl)-3,4-dimethyl-N-((5-methylfuran-2-yl)methyl)-2-oxo-1,2,3,4-tetrahydroquinazoline-7-carboxamide], for which the EC50 is under 1 µM in assay [1]; over 10 µM in assay [2] (Homo sapiens); 1 to 10 µM in assay [3]; over 10 µM in assay [4] (Homo sapiens); 1 to 10 µM in assay [5].

In the case of `CC1c2ccc(C(=O)NCc3cc4ccccc4o3)cc2N(Cc2c(F)cccc2Cl)C(=O)N1C` (stereo not shown) [Example 213, N-(benzofuran-2-ylmethyl)-1-(2-chloro-6-fluorobenzyl)-3,4-dimethyl-2-oxo-1,2,3,4-tetrahydroquinazoline-7-carboxamide], the EC50 in assay [1] is under 1 µM; in assay [2] (Homo sapiens), 1 to 10 µM; in assay [3] it was 1 to 10 µM; in assay [4] (Homo sapiens), 1 to 10 µM; in assay [5], 1 to 10 µM.
